Laboratory results as given in ChEMBL document CHEMBL1201862, “PubChem BioAssay data set” (2004).
The source made the active and inactive calls. For most assays here, no stated cut-off is given here; in the data, actives have a measured IC50 and inactives only a lower limit.

Key:
[1] = biological target: Eukaryotic translation initiation factor 4H (Homo sapiens, UniProt Q15056); test: eIF4H binding inhibition – biochemical, uHTS, fluorescence polarization, translation initiation inhibitor project, primary screen (AID 2012)
[2] = biological target: Polyadenylate-binding protein 1 (Homo sapiens, UniProt P11940); test: blockers of PABP interaction with poly(A) – biochemical, fluorescence polarization, […] (AID 2014)
Sequence of Polyadenylate-binding protein 1 (P11940 whole entry): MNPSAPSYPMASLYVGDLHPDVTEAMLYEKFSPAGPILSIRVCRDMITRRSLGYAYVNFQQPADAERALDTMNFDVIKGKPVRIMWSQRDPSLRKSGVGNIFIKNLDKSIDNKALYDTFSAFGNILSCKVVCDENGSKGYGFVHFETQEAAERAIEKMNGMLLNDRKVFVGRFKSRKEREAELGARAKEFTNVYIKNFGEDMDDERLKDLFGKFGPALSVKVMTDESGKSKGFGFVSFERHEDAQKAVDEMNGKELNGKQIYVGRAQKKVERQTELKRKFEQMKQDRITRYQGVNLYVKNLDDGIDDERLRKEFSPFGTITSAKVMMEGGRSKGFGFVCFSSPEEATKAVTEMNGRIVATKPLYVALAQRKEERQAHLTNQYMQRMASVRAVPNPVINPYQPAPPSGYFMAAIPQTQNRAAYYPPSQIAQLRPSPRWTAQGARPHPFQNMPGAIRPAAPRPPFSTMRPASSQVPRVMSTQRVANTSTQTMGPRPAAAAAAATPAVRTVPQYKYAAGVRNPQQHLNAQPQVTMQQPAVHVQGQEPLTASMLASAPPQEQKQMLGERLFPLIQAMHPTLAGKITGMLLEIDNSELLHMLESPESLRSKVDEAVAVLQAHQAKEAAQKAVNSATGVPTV

[3] = biological target: DNA dC->dU-editing enzyme APOBEC-3A (Homo sapiens, UniProt P31941); test: Dose Response confirmation of small molecule APOBEC3A DNA Deaminase Inhibitors via a fluorescence-based single-stranded DNA deaminase assay. [Related pubchem assays (depositor defined):AID493011, AID493024]; type: functional
Sequence of DNA dC->dU-editing enzyme APOBEC-3A (P31941 whole entry): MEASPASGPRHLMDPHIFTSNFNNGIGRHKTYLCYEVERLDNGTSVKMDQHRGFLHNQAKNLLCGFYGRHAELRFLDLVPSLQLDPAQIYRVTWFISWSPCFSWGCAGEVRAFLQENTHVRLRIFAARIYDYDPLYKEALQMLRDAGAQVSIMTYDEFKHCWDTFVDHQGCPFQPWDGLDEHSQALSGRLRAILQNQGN

[4] = biological target: DNA dC->dU-editing enzyme APOBEC-3G (Homo sapiens, UniProt Q9HC16); type: functional;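 further: Dose-response counterscreen measuring inhibition of APOBEC3G DNA deaminase activity, run while confirming APOBEC3A inhibitors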
Sequence of DNA dC->dU-editing enzyme APOBEC-3G (Q9HC16 whole entry): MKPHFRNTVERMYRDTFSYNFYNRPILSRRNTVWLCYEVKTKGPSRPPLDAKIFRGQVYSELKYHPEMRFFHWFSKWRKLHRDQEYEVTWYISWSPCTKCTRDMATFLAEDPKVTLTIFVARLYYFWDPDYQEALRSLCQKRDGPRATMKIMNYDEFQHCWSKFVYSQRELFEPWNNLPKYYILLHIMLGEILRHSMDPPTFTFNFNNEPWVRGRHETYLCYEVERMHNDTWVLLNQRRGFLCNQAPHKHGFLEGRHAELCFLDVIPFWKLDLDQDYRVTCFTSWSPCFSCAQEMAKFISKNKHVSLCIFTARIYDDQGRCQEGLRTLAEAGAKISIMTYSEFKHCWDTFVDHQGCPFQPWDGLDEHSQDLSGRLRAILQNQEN

Tumor necrosis factor = Tumor necrosis factor (Homo sapiens, UniProt P01375); test: analog potency on TNFa NF-kB signaling – cell-based, revised, SAR follow-up (AID 2337); type: functional
Sequence of Tumor necrosis factor (P01375 whole entry, the tested form may be a part): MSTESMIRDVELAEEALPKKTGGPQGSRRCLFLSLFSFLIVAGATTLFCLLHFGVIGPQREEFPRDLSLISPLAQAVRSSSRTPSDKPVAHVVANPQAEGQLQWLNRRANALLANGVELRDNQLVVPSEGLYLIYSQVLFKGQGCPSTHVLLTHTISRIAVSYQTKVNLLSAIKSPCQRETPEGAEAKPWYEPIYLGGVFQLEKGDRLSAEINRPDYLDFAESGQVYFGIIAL

[5] = biological target: T1, Nucleotide-binding oligomerization domain-containing protein 1 (Homo sapiens, UniProt Q9Y239); test: blockers of NOD1 pathway activity – revised, SAR follow-up (AID 2333); type: functional
T1 sequence (Q9Y239 whole entry): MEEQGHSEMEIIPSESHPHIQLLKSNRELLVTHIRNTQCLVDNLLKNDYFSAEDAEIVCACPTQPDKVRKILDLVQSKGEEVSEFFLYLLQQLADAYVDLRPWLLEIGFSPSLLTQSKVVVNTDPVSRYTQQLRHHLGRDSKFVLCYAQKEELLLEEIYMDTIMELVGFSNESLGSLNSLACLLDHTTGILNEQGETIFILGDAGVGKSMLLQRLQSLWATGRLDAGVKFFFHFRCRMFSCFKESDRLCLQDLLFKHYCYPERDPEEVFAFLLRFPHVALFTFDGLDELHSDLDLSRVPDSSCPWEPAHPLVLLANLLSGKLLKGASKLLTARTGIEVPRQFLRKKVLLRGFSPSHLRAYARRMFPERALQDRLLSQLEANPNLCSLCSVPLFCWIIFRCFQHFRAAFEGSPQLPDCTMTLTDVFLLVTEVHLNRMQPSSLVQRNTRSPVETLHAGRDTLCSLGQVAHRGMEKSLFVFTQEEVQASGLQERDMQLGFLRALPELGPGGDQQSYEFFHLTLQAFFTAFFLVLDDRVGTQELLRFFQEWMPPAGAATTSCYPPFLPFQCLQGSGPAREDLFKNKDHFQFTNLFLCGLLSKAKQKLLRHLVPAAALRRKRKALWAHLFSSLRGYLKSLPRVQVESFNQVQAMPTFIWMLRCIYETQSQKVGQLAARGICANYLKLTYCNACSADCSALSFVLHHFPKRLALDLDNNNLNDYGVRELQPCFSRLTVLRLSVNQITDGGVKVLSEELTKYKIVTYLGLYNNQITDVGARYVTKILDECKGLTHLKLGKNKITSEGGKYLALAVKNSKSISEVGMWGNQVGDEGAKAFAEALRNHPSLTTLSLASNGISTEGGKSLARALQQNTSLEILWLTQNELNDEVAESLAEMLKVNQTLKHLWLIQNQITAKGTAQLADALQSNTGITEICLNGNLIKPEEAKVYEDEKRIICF

[6] = biological target: Nucleotide-binding oligomerization domain-containing protein 2 (Homo sapiens, UniProt Q9HC29); test: PubChem AID 2334; type: functional
Sequence of Nucleotide-binding oligomerization domain-containing protein 2 (Q9HC29 whole entry, the tested form may be a part): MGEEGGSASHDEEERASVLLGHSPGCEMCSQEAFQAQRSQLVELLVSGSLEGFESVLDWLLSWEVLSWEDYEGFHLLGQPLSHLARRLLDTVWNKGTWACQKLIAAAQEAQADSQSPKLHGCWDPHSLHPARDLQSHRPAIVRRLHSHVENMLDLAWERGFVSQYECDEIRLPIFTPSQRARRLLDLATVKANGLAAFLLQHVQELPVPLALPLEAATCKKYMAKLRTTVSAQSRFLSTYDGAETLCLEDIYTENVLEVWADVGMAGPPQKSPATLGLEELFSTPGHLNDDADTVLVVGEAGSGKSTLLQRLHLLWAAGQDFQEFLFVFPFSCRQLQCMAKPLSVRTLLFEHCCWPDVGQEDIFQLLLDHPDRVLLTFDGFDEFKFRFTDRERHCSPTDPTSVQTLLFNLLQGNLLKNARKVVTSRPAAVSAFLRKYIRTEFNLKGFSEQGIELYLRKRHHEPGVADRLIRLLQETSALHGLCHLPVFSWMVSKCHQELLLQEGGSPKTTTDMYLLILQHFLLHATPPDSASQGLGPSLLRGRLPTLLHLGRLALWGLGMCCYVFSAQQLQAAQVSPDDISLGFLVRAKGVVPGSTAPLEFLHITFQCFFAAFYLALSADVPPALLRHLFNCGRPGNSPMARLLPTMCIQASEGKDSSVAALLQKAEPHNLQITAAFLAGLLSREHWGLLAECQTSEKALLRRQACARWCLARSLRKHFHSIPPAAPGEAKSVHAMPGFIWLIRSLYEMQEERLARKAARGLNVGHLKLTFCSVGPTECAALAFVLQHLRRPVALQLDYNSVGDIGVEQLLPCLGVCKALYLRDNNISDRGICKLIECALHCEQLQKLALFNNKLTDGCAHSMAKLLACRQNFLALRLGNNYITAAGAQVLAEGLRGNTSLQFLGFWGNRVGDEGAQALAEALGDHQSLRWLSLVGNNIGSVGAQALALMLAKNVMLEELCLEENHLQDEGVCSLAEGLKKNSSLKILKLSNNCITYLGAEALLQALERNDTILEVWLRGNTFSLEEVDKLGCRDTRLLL

HEK293 = test: cells; conditions: Homo sapiens;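 further: cells exposed to compound for 14 hours overnight before viability readout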
X-box-binding protein 1 = X-box-binding protein 1 (Homo sapiens, UniProt P17861); type: functional, Cricetulus griseus;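 further: confirmatory dose-response counter-screen serving a CHOP assay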
Sequence of X-box-binding protein 1 (P17861 whole entry): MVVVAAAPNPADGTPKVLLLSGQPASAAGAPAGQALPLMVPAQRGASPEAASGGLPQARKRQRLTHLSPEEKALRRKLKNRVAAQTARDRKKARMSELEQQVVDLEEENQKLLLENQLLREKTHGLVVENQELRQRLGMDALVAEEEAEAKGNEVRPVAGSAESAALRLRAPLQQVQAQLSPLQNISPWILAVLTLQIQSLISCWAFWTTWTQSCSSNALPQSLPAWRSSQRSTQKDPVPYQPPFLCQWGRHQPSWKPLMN

Row | Absolute IC50 (XBP1) (X-box-binding protein 1) [µM] | Compound | IC50 [1] | IC50 [2] | IC50 [3] | IC50 [4] | IC50 (Tumor necrosis factor) | IC50 [5] | IC50 [6] | IC50 (HEK293)
1 |  | CC[n+]1c(C)n(CC(O)COCC2CC=CCC2)c2ccccc21 (stereo not drawn) | 92.2 µM (active) | 5.47 µM (active) | 2.12 µM (active) | 3.86 µM (active) |  |  |  | 
2 |  | COC(=O)c1scc(S(=O)(=O)C(C)C)c1NN=C(C#N)C(=O)c1ccc(Cl)cc1 |  |  |  |  | 10.9 µM (active) | 5.43 µM (active) | 5.88 µM (active) | > 20 µM (inactive)
3 | 10 | Oc1ccc(N=Nc2cccc(C(F)(F)F)c2)cc1/C=N/c1ccc(N2CCOCC2)cc1 |  |  |  |  |  |  |  | 
4 |  | CCC(=O)N1CCc2cc(S(=O)(=O)N3CCN(c4ccc(C(C)=O)cc4)CC3)ccc21 |  |  |  |  | > 20 µM (inactive) | > 20 µM (inactive) | > 20 µM (inactive) | > 20 µM (inactive)
